Source: the NIST ThermoML archive (doi:10.1016/j.tca.2016.05.007)
Numbers after ± are expanded uncertainties.

Assay: molar heat capacity at constant pressure
Conditions: 101.33 kPa, Small (less than 1 g) adiabatic calorimetry

COc1ccc(C2(c3ccc(OC)c(C)c3)OC(=O)c3ccccc32)cc1C [3,3-bis(4-methoxy-3-methylphenyl)-1(3H)-isobenzofuranone]
Conditions | molar heat capacity at constant pressure [J/K/mol]
122.17 K, Crystal | 213.95 ± 0.86
122.52 K, Glass | 216.46 ± 0.87
124.01 K, Crystal | 216.41 ± 0.87
124.36 K, Glass | 219.13 ± 0.88
125.87 K, Crystal | 218.89 ± 0.88
126.22 K, Glass | 221.66 ± 0.89
127.75 K, Crystal | 221.61 ± 0.89
128.1 K, Glass | 224.36 ± 0.9
129.65 K, Crystal | 224.19 ± 0.9
129.99 K, Glass | 227.11 ± 0.91
131.57 K, Crystal | 226.74 ± 0.91
131.9 K, Glass | 229.75 ± 0.92
133.5 K, Crystal | 229.52 ± 0.91
133.83 K, Glass | 232.44 ± 0.92
135.45 K, Crystal | 232.5 ± 0.92
135.78 K, Glass | 234.99 ± 0.93
137.41 K, Crystal | 235.25 ± 0.93
137.74 K, Glass | 237.67 ± 0.94
139.4 K, Crystal | 237.93 ± 0.94
139.72 K, Glass | 240.4 ± 0.95
141.4 K, Crystal | 240.84 ± 0.95
141.72 K, Glass | 243.28 ± 0.96
143.41 K, Crystal | 243.44 ± 0.96
143.74 K, Glass | 246.09 ± 0.97
145.45 K, Crystal | 246.17 ± 0.97
145.77 K, Glass | 248.92 ± 0.98
147.5 K, Crystal | 249.06 ± 0.98
147.82 K, Glass | 251.76 ± 0.99
149.57 K, Crystal | 252.1 ± 0.99
149.89 K, Glass | 254.31 ± 1
151.66 K, Crystal | 254.85 ± 1
151.97 K, Glass | 257.37 ± 1
153.77 K, Crystal | 257.6 ± 1
154.07 K, Glass | 260.38 ± 1
155.89 K, Crystal | 260.26 ± 1
156.2 K, Glass | 263.17 ± 1
158.03 K, Crystal | 263.29 ± 1
158.33 K, Glass | 266.05 ± 1
160.19 K, Crystal | 265.94 ± 1
160.48 K, Glass | 269 ± 1.1
162.37 K, Crystal | 268.95 ± 1.1
162.64 K, Glass | 272.01 ± 1.1
164.56 K, Crystal | 271.82 ± 1.1
164.81 K, Glass | 275.02 ± 1.1
166.77 K, Crystal | 274.83 ± 1.1
167 K, Glass | 277.98 ± 1.1
169 K, Crystal | 277.76 ± 1.1
169.19 K, Glass | 280.78 ± 1.1
171.25 K, Crystal | 280.87 ± 1.1
171.4 K, Glass | 283.98 ± 1.1
173.51 K, Crystal | 283.67 ± 1.1
173.62 K, Glass | 286.89 ± 1.1
175.79 K, Crystal | 286.71 ± 1.1
175.85 K, Glass | 289.88 ± 1.1
178.09 K, Crystal | 289.96 ± 1.1
178.09 K, Glass | 293 ± 1.1
180.35 K, Glass | 296.49 ± 1.1
180.41 K, Crystal | 293.2 ± 1.1
182.62 K, Glass | 299.4 ± 1.2
182.75 K, Crystal | 296.08 ± 1.1
184.9 K, Glass | 302.23 ± 1.2
185.1 K, Crystal | 299.36 ± 1.2
187.19 K, Glass | 305.37 ± 1.2
187.47 K, Crystal | 302.25 ± 1.2
189.49 K, Glass | 308.6 ± 1.2
189.86 K, Crystal | 305.36 ± 1.2
191.81 K, Glass | 311.72 ± 1.2
192.26 K, Crystal | 308.64 ± 1.2
194.14 K, Glass | 314.93 ± 1.2
194.69 K, Crystal | 311.89 ± 1.2
196.48 K, Glass | 318.26 ± 1.2
197.13 K, Crystal | 315.34 ± 1.2
198.84 K, Glass | 321.49 ± 1.2
199.32 K, Crystal | 317.71 ± 1.2
201.2 K, Glass | 324.99 ± 1.2
201.85 K, Crystal | 321.03 ± 1.2
203.58 K, Glass | 328.08 ± 1.2
204.39 K, Crystal | 324.18 ± 1.2
205.97 K, Glass | 331.65 ± 1.3
206.95 K, Crystal | 328.02 ± 1.2
208.37 K, Glass | 334.98 ± 1.3
209.51 K, Crystal | 331.38 ± 1.3
210.79 K, Glass | 338.72 ± 1.3
212.09 K, Crystal | 334.57 ± 1.3
213.22 K, Glass | 342.02 ± 1.3
214.68 K, Crystal | 337.96 ± 1.3
215.66 K, Glass | 345.52 ± 1.3
217.29 K, Crystal | 341.78 ± 1.3
218.12 K, Glass | 349.05 ± 1.3
219.9 K, Crystal | 345.52 ± 1.3
220.58 K, Glass | 352.67 ± 1.3
222.52 K, Crystal | 348.92 ± 1.3
223.06 K, Glass | 355.96 ± 1.4
225.16 K, Crystal | 352.6 ± 1.3
225.55 K, Glass | 359.74 ± 1.4
227.81 K, Crystal | 355.97 ± 1.4
228.02 K, Glass | 362.84 ± 1.4
230.46 K, Glass | 366.31 ± 1.4
230.47 K, Crystal | 359.41 ± 1.4
232.95 K, Glass | 369.75 ± 1.4
233.14 K, Crystal | 362.97 ± 1.4
235.43 K, Glass | 373.33 ± 1.4
235.82 K, Crystal | 366.8 ± 1.4
237.94 K, Glass | 377.18 ± 1.4
238.52 K, Crystal | 370.5 ± 1.4
240.46 K, Glass | 380.87 ± 1.4
241.23 K, Crystal | 373.97 ± 1.4
243.01 K, Glass | 384.18 ± 1.4
243.95 K, Crystal | 377.59 ± 1.4
245.58 K, Glass | 387.76 ± 1.5
246.68 K, Crystal | 381.22 ± 1.4
248.17 K, Glass | 391.43 ± 1.5
249.42 K, Crystal | 384.68 ± 1.4
250.78 K, Glass | 395.34 ± 1.5
252.17 K, Crystal | 388.51 ± 1.5
253.42 K, Glass | 399.08 ± 1.5
254.94 K, Crystal | 392.35 ± 1.5
256.07 K, Glass | 402.8 ± 1.5
257.72 K, Crystal | 395.86 ± 1.5
258.74 K, Glass | 406.86 ± 1.5
260.51 K, Crystal | 399.92 ± 1.5
261.44 K, Glass | 410.9 ± 1.5
263.31 K, Crystal | 403.6 ± 1.5
264.16 K, Glass | 414.85 ± 1.6
266.12 K, Crystal | 407.84 ± 1.5
266.89 K, Glass | 419.34 ± 1.6
268.94 K, Crystal | 412.03 ± 1.6
269.65 K, Glass | 423.9 ± 1.6
271.78 K, Crystal | 417 ± 1.6
272.43 K, Glass | 428.57 ± 1.6
274.62 K, Crystal | 419.54 ± 1.6
275.22 K, Glass | 431.8 ± 1.6
277.48 K, Crystal | 423.7 ± 1.6
278.04 K, Glass | 436.42 ± 1.6
280.36 K, Crystal | 427.79 ± 1.6
280.88 K, Glass | 440.97 ± 1.6
282.95 K, Crystal | 430.44 ± 1.6
283.74 K, Glass | 445.62 ± 1.7
285.84 K, Crystal | 434.94 ± 1.6
286.62 K, Glass | 450.63 ± 1.7
288.75 K, Crystal | 438.86 ± 1.6
289.52 K, Glass | 455.31 ± 1.7
291.64 K, Crystal | 442.83 ± 1.6
292.44 K, Glass | 460.3 ± 1.7
294.51 K, Crystal | 446.52 ± 1.7
295.38 K, Glass | 465.32 ± 1.7
297.4 K, Crystal | 449.56 ± 1.7
298.34 K, Glass | 470.91 ± 1.8
301.33 K, Glass | 473.58 ± 1.8
303.26 K, Crystal | 457.78 ± 1.7
304.32 K, Glass | 491.69 ± 1.8
306.21 K, Crystal | 461.74 ± 1.7
307.3 K, Glass | 525.07 ± 2
309.18 K, Crystal | 465.91 ± 1.7
310.26 K, Glass | 604.32 ± 2.2
312.18 K, Crystal | 470.02 ± 1.8
313.23 K, Glass | 614.14 ± 2.2
315.19 K, Crystal | 474.07 ± 1.8
316.23 K, Metastable liquid | 622.32 ± 2.7
318.23 K, Crystal | 478.43 ± 1.8
319.25 K, Metastable liquid | 625.96 ± 2.7
321.28 K, Crystal | 482.81 ± 1.8
322.29 K, Metastable liquid | 629.84 ± 2.7
324.35 K, Crystal | 487.1 ± 1.8
325.35 K, Metastable liquid | 633.32 ± 2.7
327.44 K, Crystal | 491.54 ± 1.8
328.43 K, Metastable liquid | 636.56 ± 2.8
330.55 K, Crystal | 495.88 ± 1.8
331.52 K, Metastable liquid | 639.81 ± 2.8
333.68 K, Crystal | 500.17 ± 1.9
334.64 K, Metastable liquid | 642.98 ± 2.8
336.81 K, Crystal | 504.57 ± 1.9
337.78 K, Metastable liquid | 646.52 ± 2.8
339.94 K, Crystal | 508.36 ± 1.9
340.93 K, Metastable liquid | 649.55 ± 2.8
343.08 K, Crystal | 512.55 ± 1.9
344.11 K, Metastable liquid | 652.75 ± 2.8
346.25 K, Crystal | 517.45 ± 1.9
347.3 K, Metastable liquid | 656.04 ± 2.8
349.43 K, Crystal | 521.7 ± 1.9
350.51 K, Metastable liquid | 659.31 ± 2.8
352.63 K, Crystal | 525.97 ± 1.9
353.74 K, Metastable liquid | 662.1 ± 2.9
355.85 K, Crystal | 530.55 ± 2
356.97 K, Metastable liquid | 665.61 ± 2.9
359.09 K, Crystal | 535.23 ± 2
360.22 K, Metastable liquid | 669.03 ± 2.9
362.34 K, Crystal | 540.42 ± 2
363.49 K, Metastable liquid | 672.55 ± 2.9
365.61 K, Crystal | 545.96 ± 2
366.77 K, Metastable liquid | 676.27 ± 2.9
368.9 K, Crystal | 551.67 ± 2
370.07 K, Metastable liquid | 680.12 ± 2.9
372.2 K, Crystal | 556.9 ± 2
